Test [1] has as its system MKN45 cell line (cell line expressing active RON). Description: Cell growth inhibition MTS assay on MKN45. In kind it is cell-based. To be noted: Homo sapiens, MKN-45, 48 hours, read-out: Growth inhibitory capacity on MKN45 cells, IC50. How it is done:
MTS assay was performed to identify whether the compound according to the present invention has a cancer cell proliferation inhibitory effect through inhibition of extracellular signal-regulated kinase activity.
The following assay was performed on MKN45 cell line (cell line expressing active RON), a human gastric cancer cell line. The MKN45 cell line was dispensed at a concentration of 5,000 cells/well in a 96-well plate containing RPMI-1640 medium (Gibco, Invitrogen) containing 10% FBS, and then the plate was incubated for 24 hours at a condition of 5% CO2 and 37° C. Then, the respective wells were subjected to treatment with the compounds prepared in the examples, each of which was sequentially diluted from its high concentration of 10 μM. For a solvent control, the respective wells were subjected to treatment with dimethyl sulfoxide (DMSO) at the same concentrations (% (v/v)) to those used for the treatment with the compounds. Then, the respective cells were incubated for 48 hours.
In order to identify degree of viability of the cells, a mixture of MTS and phenazine methosulfate (PMS) provided in CellTiter 96 AQuous Non-Radioactive Cell Proliferation Assay Kit (Promega) was added to each cultured cell medium. Additional incubation was performed at a condition of 37° C. for 2 hours and 30 minutes. Then, absorbance was measured at 490 nm. […] In the following, A represents <10 nM, B represents 10 to 50 nM, and C represents >50 nM.
A general note: Formazan colour is commonly taken as a measure of viable cells.

In a further test the target is RON enzyme (Homo sapiens, UniProt Q04912). Nature of the test: RON activity inhibition assay (ADP-Glo). Format: biochemical. As to conditions: 50 uM ATP, G4Y1 peptide substrate. How it is done: Enzymatic reaction was allowed to proceed using 2 ng/uL of 250 uM G4Y1 peptide, which serves as a substrate for RON enzyme, and 50 uM ATP in assay buffer (40 mM Tris-HCl, pH 7.5, 20 mM MgCl2, 0.1 mg/mL bovine serum albumin, 50 uM DTT). The resultant was subjected to treatment with the compounds prepared in the examples and the comparative examples at various concentrations, and reaction was allowed to proceed at room temperature for 1 hour. Then, ADP-Glo™ Reagent and Kinase Detection Reagent were sequentially added thereto, and reaction was allowed to proceed at room temperature for 40 minutes and 30 minutes, respectively.
Subsequently, luminescence was measured using Wallaac Victor 2TM (PerkinElmer Life Sciences, 1420-042). Data were analyzed with the measured RLU values to verify activity of the RON inhibitors. The RLU value of a sample which was not treated with the compound was set as a 100% control, and the activity of the RON inhibitor was evaluated as a percentage of residual activity of the RON enzyme in the sample that was treated with the compound at the concentration to be tested.
(ADP-Glo turns the ADP formed in a reaction into a luminescent signal.)

The subject of a further test is KM12C cell line tumor. Nature of the test: Efficacy in animal model transplanted with KM12C, 30 and 50 mpk (Experimental Example 11). As to conditions: once a day for 2 weeks. Format: in vivo, BALB/c nude mice. How it is done:
5-Week-old female BALB/c nude mice were purchased and acclimatized for 1 week. Then, human-derived colon cancer cell line KM12C (1.5×10^6 cells/mice) was diluted in PBS, and injected subcutaneously (100 μl) into the right dorsal side of the mice. Comparative Examples 1 and Example 18 were orally administered when the tumor reached a size of about 100 mm^3. The drug was administered at 30 mpk and 50 mpk once a day for 2 weeks, and tumor size and body weight were measured twice a week. […] After completion of the drug administration, the experimental animals were euthanized, and then the tumors were extracted and weighed to perform comparative analysis.

For test [2], the system named is colon cancer patient tissue (active RON/RON mutant #1: Δ160). Description: Efficacy in animal model transplanted with colon cancer patient tissue, 30 mpk. Format: in vivo. To be noted: 30 mpk for 4 weeks. How it is done:
Example 18 and Comparative Example 1 were administered to an animal model transplanted with the same patient tissue (active RON/RON mutant #1: Δ160) cells as in the animal model transplanted with colon cancer patient tissue tumor cells at 30 mpk for 4 weeks. […] The lower pictures of FIG. 21 show tumors extracted from representative individuals of the respective groups.

A further test relates to Colo320HSR (RON-). Description: Cell death-inducing ability, trypan blue exclusion, Colo320HSR. In kind it is cell-based. To be noted: 48 hours. The protocol:
(§1) The cell death-inducing ability of Example 18 and Comparative Example 1 was measured in KM12C with RON mutant (Δ160), a cetuximab-resistant cell line, and Colo320HSR cell line, a cell line not expressing RON. The two colon cancer cell lines were seeded, respectively, onto 60-mm plates at 2×10^5 cells. Then, after 24 hours, while performing medium exchange, the cells were subjected to treatment with the sample compounds at respective concentrations (1 μM, 5 μM) for 48 hours. After 48 hours, the cells and cell suspensions were collected (1,500 rpm, 3 minutes), and live cells and dead cells were quantitated (n=2) through trypan blue (15250-061, Gibco) exclusion assay.

Test [3] concerns KM12C (RONΔ160). Description: MTS assay KM12C (Experimental Example 6). Format: cell-based. To be noted: Homo sapiens, 72 hours. How it is done: In MTS assay for Example 18 and Comparative Example 1, KM12C cell line was seeded at 1,000 cells per well into 96-well plates. After 24 hours, the cells were treated with various concentrations (0.000001 uM to 10 uM) of Example 18 and Comparative Example 1 in 100 ul of 10% FBS-MEM medium (Welgene) per well. Subsequently, the cells were incubated for 72 hours. Then, 20 μl of MTS solution (Promega) was added thereto, and incubation was performed for 2 hours. Then, the absorbance was measured at 490 nm. The IC50 values for Example 18 and Comparative Example 1 were calculated using GraphPad Prism™ 5 to investigate cytotoxicity.

The test system of test [4] is KM12C (RONΔ160). Description: Cell death-inducing ability, trypan blue exclusion, KM12C. In kind it is cell-based, human. To be noted: 48 hours. How it is done: as §1

We go through twelve molecules from US20230172914A1, “BIOMARKER-BASED THERAPEUTIC COMPOSITION” (WELLMARKER BIO CO., LTD., priority 2019, published 2023).

Counter-ions that a name gives are not always drawn. Where only a bound is given, the exact number is not on record here.

Sequence of RON enzyme (Q04912 25-1400): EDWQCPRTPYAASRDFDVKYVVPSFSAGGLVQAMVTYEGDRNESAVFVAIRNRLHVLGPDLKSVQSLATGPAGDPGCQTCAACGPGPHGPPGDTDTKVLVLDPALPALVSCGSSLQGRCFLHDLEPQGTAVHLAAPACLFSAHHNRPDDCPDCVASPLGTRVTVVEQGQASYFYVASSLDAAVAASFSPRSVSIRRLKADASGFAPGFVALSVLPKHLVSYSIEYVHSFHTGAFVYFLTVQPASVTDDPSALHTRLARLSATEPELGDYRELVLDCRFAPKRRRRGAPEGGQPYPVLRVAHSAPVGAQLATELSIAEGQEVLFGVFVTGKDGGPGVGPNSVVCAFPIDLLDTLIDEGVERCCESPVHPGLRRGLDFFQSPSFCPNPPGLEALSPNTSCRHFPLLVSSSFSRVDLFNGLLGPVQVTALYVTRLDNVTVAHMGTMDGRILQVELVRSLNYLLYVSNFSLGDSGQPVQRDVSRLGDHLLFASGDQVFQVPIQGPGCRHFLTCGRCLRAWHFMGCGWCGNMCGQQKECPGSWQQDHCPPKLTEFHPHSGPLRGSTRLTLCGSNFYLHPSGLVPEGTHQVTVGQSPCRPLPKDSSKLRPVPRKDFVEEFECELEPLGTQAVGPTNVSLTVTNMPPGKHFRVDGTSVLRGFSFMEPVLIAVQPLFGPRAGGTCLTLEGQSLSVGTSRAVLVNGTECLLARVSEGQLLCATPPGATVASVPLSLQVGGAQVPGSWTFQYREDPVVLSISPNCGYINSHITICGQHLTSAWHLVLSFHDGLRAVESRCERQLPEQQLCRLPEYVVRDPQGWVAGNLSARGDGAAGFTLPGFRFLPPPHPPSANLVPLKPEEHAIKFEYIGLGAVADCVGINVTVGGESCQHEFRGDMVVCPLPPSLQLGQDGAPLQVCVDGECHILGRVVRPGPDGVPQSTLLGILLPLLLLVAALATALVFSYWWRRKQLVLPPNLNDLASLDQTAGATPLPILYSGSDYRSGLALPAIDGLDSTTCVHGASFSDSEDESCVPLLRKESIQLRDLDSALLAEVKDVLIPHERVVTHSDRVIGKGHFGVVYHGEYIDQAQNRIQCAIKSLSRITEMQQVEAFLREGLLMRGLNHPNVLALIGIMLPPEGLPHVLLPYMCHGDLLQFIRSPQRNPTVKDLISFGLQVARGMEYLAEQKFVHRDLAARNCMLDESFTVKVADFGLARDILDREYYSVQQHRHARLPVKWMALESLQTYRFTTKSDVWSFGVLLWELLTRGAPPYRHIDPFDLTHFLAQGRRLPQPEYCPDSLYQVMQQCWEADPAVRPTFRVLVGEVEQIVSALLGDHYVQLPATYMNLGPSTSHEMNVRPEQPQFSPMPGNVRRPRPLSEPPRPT

Regarding `CCOc1ccn(-c2ccc(F)cc2)c(=O)c1C(=O)Nc1ccc(Oc2ccnc3cc(-c4cccnc4)sc23)c(F)c1` [Example 6, 4-ethoxy-N-(3-fluoro-4-(2-(pyridin-3-yl)thieno[3,2-b]pyridin-7-yloxy)phenyl)-1-(4-fluorophenyl)-2-oxo-1,2-dihydropyridine-3-carboxamide], in test [1], the IC50 lay within 0.01 to 0.05 µM.
For `CCOc1ccn(Cc2ccc(F)cc2)c(=O)c1C(=O)Nc1ccc(Oc2ccnc3cc(-c4cn(CC)cn4)sc23)c(F)c1` [Example 8, 4-ethoxy-N-(4-(2-(1-ethyl-1H-imidazol-4-yl)thieno[3,2-b]pyridin-7-yloxy)-3-fluorophenyl)-1-(4-fluorobenzyl)-2-oxo-1,2-dihydropyridine-3-carboxamide], the IC50 in test [1] is over 0.05 µM.
Same read-out and setting: as for `CCOc1ccn(-c2ccc(F)cc2)c(=O)c1C(=O)Nc1ccc(Oc2ccnc3cc(-c4nccn4C)sc23)c(F)c1` [Example 3, 4-ethoxy-N-(3-fluoro-4-(2-(1-methyl-1H-imidazol-2-yl)thieno[3,2-b]pyridine-7-yloxy)phenyl)-1-(4-fluorophenyl)-2-oxo-1,2-dihydropyridine-3-carboxamide], the figure is 0.01 to 0.05 µM.
Same read-out and setting: then `CCOc1ccn(-c2ccc(F)cc2)c(=O)c1C(=O)Nc1ccc(Oc2ccnc3cc(-c4cnn(C)c4)sc23)c(F)c1` [Example 4, 4-ethoxy-N-(3-fluoro-4-(2-(1-methyl-1H-pyrazol-4-yl)thieno[3,2-b]pyridine-7-yloxy)phenyl)-1-(4-fluorophenyl)-2-oxo-1,2-dihydropyridine-3-carboxamide], with 0.01 to 0.05 µM.
For `CCOc1ccn(-c2ccc(F)cc2)c(=O)c1C(=O)Nc1ccc(Oc2ccnc3cc(-c4cn(C)cn4)sc23)c(F)c1` [Example 1, 4-ethoxy-N-(3-fluoro-4-(2-(1-methyl-1H-imidazol-4-yl)thieno[3,2-b]pyridine-7-yloxy)phenyl)-1-(4-fluorophenyl)-2-oxo-1,2-dihydropyridine-3-carboxamide], the IC50 against RON enzyme was 0.0111 µM; in test [1], under 0.01 µM.
As to `CCOc1ccn(-c2ccc(F)cc2)c(=O)c1C(=O)Nc1ccc(Oc2ccnc(N)c2Cl)c(F)c1` [Comparative Example 1, N-{4-[(2-amino-3-chloro-4-pyridinyl)oxy]-3-fluorophenyl}-4-ethoxy-1-(4-fluorophenyl)-2-oxo-1,2-dihydro-3-pyridinecarboxamide, reference compound], the “TGI (%)” value in the test with KM12C cell line tumor (30 mg/kg oral) was 82.4%; with KM12C cell line tumor (50 mg/kg oral), 83.7%. Further, the “tumor growth inhibition efficacy” value is “very high tumor growth inhibition efficacy” in the test on KM12C cell line tumor (30 mpk and 50 mpk oral); “about 18%” in test [2]. Besides, the “Cell death, Colo320HSR (RON-)” value in the test with Colo320HSR (RON-) (1 μM) worked out at 5.9; in the test with Colo320HSR (RON-) (5 μM) it was 8.2. The IC50 in the test with KM12C (RONΔ160) [3] amounted to 358 nM. Moreover, the “Cell death, KM12C (RONΔ160)” value in the test with KM12C (RONΔ160) [4] (1 μM) came to 11.7; in the test on KM12C (RONΔ160) [4] (5 μM) it was 21.1.
Take `CCOc1ccn(-c2ccc(F)cc2)c(=O)c1C(=O)Nc1ccc(Oc2ccnc3cc(-c4ccccn4)sc23)c(F)c1` [Example 5, 4-ethoxy-N-(3-fluoro-4-(2-(pyridin-2-yl)thieno[3,2-b]pyridin-7-yloxy)phenyl)-1-(4-fluorophenyl)-2-oxo-1,2-dihydropyridine-3-carboxamide]: the IC50 against RON enzyme is 0.0088 µM; in test [1], 0.01 to 0.05 µM.
For `COCn1cnc(-c2cc3nccc(Oc4ccc(NC(=O)c5c(OC)ccn(-c6ccccc6)c5=O)cc4F)c3s2)c1` [Example 9, 4-methoxy-N-(3-fluoro-4-(2-(1-(methoxymethyl)-1H-imidazol-4-yl)thieno[3,2-b]pyridin-7-yloxy)phenyl)-1-phenyl-2-oxo-1,2-dihydropyridine-3-carboxamide], in test [1], the IC50 is 0.01 to 0.05 µM.
As for `CCOc1ccn(-c2ccc(F)cc2)c(=O)c1C(=O)Nc1ccc(Oc2ccnc3cc(CN4CCN(C)CC4)sc23)c(F)c1` [Example 11, 4-ethoxy-N-(3-fluoro-4-(2-((4-methylpiperazin-1-yl)methyl)thieno[3,2-b]pyridine-7-yloxy)phenyl)-1-(4-fluorophenyl)-2-oxo-1,2-dihydropyridine-3-carboxamide], the IC50 in test [1] was over 0.05 µM.
On the same count and under the same terms, then `CCOc1ccn(C)c(=O)c1C(=O)Nc1ccc(Oc2ccnc3cc(-c4cn(C)cn4)sc23)c(F)c1` [Example 2, 4-ethoxy-N-(3-fluoro-4-(2-(1-methyl-1H-imidazol-4-yl)thieno[3,2-b]pyridine-7-yloxy)phenyl)-1-methyl-2-oxo-1,2-dihydropyridine-3-carboxamide], with over 0.05 µM; and `CCOc1ccn(-c2ccc(F)cc2)c(=O)c1C(=O)Nc1ccc(Oc2ccnc3cc(-c4nccs4)sc23)c(F)c1` [Example 7, 4-ethoxy-N-(3-fluoro-4-(2-(thiazol-2-yl)thieno[3,2-b]pyridin-7-yloxy)phenyl)-1-(4-fluorophenyl)-2-oxo-1,2-dihydropyridine-3-carboxamide], with over 0.05 µM.
On the same count and under the same terms, then `CCOc1ccn(-c2ccc(F)cc2)c(=O)c1C(=O)Nc1ccc(Oc2ccnc3cc(CN4CCNCC4)sc23)c(F)c1` [Example 10, 4-ethoxy-N-(3-fluoro-4-(2-(piperazin-1-ylmethyl)thieno[3,2-b]pyridin-7-yloxy)phenyl)-1-(4-fluorophenyl)-2-oxo-1,2-dihydropyridine-3-carboxamide hydrochloride], with over 0.05 µM.

One may read the IC50 as the midpoint of a concentration-inhibition curve.
